From patent US20230286970A1, “NOVEL OXADIAZOLE-BASED SELECTIVE HDAC6 INHIBITORS” (ITALFARMACO S.P.A., priority 2020, published 2023) come the findings set out here.

By IC50 is commonly meant the concentration that gives 50% inhibition.

The target in experiment [1] is recombinant human HDAC1 (Homo sapiens (Human), UniProt Q13547). The experiment is described as follows: Enzymatic screening, HDAC1 inhibition (fluorogenic FdL_G substrate). Type of experiment: biochemical. A digest of the protocol: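 Recombinant human HDAC1 inhibition was measured fluorometrically using the FLUOR DE LYS-Green (FdL_G) substrate. Compounds at 8 doses (1% DMSO final) in Tris-HCl pH 8 buffer with NaCl, Tween-20 and glycerol were preincubated in triplicate with enzyme and 1 mg/mL BSA, then given substrate. Developer I plus 2 μM TSA was added, and fluorescence read after 25 minutes in the dark.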
recombinant human HDAC1, sequence (Q13547 whole entry): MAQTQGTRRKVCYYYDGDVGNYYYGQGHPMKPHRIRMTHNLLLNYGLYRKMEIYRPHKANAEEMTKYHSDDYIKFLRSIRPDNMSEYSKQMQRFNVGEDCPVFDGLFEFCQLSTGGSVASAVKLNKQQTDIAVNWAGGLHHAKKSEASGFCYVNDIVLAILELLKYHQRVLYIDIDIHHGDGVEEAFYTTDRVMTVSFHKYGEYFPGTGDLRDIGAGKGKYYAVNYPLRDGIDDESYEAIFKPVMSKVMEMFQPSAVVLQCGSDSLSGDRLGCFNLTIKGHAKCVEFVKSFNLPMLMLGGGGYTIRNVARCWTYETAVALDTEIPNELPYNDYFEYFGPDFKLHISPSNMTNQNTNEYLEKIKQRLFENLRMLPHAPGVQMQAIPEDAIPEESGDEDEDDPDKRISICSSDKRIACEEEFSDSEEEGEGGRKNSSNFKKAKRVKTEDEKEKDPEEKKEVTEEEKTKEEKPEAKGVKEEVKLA

Experiment [2] has as its target recombinant human HDAC6 (Homo sapiens (Human), UniProt Q9UBN7). The experiment is described as follows: Enzymatic screening, HDAC6 inhibition (fluorogenic FdL_G substrate). Type of experiment: biochemical. An outline of the steps: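 Enzyme was preincubated with compound (8 doses, triplicate, 1% DMSO) in 25 mM Tris-HCl pH 8, 130 mM NaCl, 0.05% Tween-20, 10% glycerol, with BSA. A FLUOR DE LYS-Green substrate was then added, and fluorescence was read after developer plus 2 μM TSA.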

Bounds are passed on as bounds.

recombinant human HDAC6, sequence (Q9UBN7 whole entry): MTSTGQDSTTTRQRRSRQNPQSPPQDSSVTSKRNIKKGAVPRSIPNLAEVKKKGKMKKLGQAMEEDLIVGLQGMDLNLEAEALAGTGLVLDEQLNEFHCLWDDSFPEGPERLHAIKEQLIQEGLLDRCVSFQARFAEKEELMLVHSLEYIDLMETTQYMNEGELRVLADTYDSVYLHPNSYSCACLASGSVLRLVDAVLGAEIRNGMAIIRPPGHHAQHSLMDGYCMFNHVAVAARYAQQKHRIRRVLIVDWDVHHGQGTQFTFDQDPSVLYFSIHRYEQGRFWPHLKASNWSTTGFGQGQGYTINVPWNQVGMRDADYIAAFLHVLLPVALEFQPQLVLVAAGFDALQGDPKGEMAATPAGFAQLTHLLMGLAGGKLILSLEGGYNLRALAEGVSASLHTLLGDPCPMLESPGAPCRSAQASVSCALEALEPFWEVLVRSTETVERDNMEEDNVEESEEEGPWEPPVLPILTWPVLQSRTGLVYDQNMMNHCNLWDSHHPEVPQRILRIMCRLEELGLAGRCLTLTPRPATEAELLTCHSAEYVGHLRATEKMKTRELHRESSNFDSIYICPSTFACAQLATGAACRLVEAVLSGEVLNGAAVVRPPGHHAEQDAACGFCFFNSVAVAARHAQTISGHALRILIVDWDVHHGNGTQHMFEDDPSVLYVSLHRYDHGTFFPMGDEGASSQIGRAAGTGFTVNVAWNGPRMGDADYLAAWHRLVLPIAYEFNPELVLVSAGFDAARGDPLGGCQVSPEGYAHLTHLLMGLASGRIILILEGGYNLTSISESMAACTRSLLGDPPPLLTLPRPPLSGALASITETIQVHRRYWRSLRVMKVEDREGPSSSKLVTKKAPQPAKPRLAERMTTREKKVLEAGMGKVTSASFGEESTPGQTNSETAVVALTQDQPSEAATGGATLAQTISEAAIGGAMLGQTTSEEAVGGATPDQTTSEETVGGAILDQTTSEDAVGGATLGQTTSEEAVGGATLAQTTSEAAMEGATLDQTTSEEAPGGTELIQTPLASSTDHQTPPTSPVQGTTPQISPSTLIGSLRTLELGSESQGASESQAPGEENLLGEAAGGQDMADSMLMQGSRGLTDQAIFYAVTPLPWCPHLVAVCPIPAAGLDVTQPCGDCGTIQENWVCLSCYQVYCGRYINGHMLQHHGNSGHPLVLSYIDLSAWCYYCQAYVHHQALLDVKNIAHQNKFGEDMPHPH

`[2H]C([2H])(c1cc(F)c(-c2nnc(C(F)F)o2)cc1F)n1cc(-c2ccc(N)nc2)nn1` [compound 381, 5-[1-[dideuterio-[4-[5-(difluoromethyl)-1,3,4-oxadiazol-2-yl]-2,5-difluorophenyl]methyl]triazol-4-yl]pyridin-2-amine]: the IC50 in experiment [1] is above 1e+06 nM; in experiment [2] it was 28 nM.

Regarding `Cn1c(N)nc2cc(-c3nnn(Cc4ncc(-c5nnc(C(F)F)o5)cn4)n3)ccc21` [compound 252, 5-(2-((5-(5-(difluoromethyl)-1,3,4-oxadiazol-2-yl)pyrimidin-2-yl)methyl)-2H-tetrazol-5-yl)-1-methyl-1H-benzo[d]imidazol-2-amine], the IC50 in experiment [1] is above 200000 nM; in experiment [2], 27 nM.

With `O=C(c1cccc(-c2nnn(Cc3ccc(-c4nnc(C(F)F)o4)c(F)c3)n2)c1)N1CCOCC1` [compound 137, (3-(2-(4-(5-(difluoromethyl)-1,3,4-oxadiazol-2-yl)-3-fluorobenzyl)-2H-tetrazol-5-yl)phenyl)(morpholino)methanone], the IC50 in experiment [1] was above 200000 nM; in experiment [2] it was 53 nM.

Consider `Nc1ccc(-c2cc(Cc3ccc(-c4nnc(C(F)F)o4)cc3)on2)cn1` [Compd. 202, 5-(5-(4-(5-(difluoromethyl)-1,3,4-oxadiazol-2-yl)benzyl)isoxazol-3-yl)pyridin-2-amine], for which the IC50 in experiment [1] is above 200000 nM; in experiment [2], 116 nM.

Regarding `Nc1ccc(-c2cn(C(CO)c3ccc(-c4nnc(C(F)F)o4)cc3)nn2)cn1` (stereo not shown) [Compd. 94, 2-(4-(6-aminopyridin-3-yl)-1H-1,2,3-triazol-1-yl)-2-(4-(5-(difluoromethyl)-1,3,4-oxadiazol-2-yl)phenyl)ethan-1-ol], the IC50 in experiment [1] was above 200000 nM; in experiment [2], 36 nM.

Consider `FC(F)c1nnc(-c2ccc(Cn3cc(-c4ccc5nc(Cl)[nH]c5c4)nn3)cc2)o1` [compound 136, 2-(4-((4-(2-chloro-1H-benzo[d]imidazol-6-yl)-1H-1,2,3-triazol-1-yl)methyl)phenyl)-5-(difluoromethyl)-1,3,4-oxadiazole], for which the IC50 in experiment [1] is above 200000 nM; in experiment [2], 53 nM.

On to `NCC(=O)Nc1cccc(-c2cn(Cc3c(F)cc(-c4nnc(C(F)F)o4)cc3F)nn2)c1` [Compd. 144, 2-amino-N-(3-(1-(4-(5-(difluoromethyl)-1,3,4-oxadiazol-2-yl)-2,6-difluorobenzyl)-1H-1,2,3-triazol-4-yl)phenyl)acetamide], for which the half-maximal inhibitory concentration (IC50) is above 200000 nM in experiment [1] and 60 nM in experiment [2].

Consider `O=C(Nc1cncc(-c2nnn(Cc3ccc(-c4nnc(C(F)F)o4)cc3)n2)c1)N1CCOCC1` [compound 199, N-(5-(2-(4-(5-(difluoromethyl)-1,3,4-oxadiazol-2-yl)benzyl)-2H-tetrazol-5-yl)pyridin-3-yl)morpholine-4-carboxamide], for which the concentration for half-maximal inhibition (IC50) was above 200000 nM in experiment [1] and 109 nM in experiment [2].

As to `Nc1nccc2cc(-c3nnn(Cc4ccc(-c5nnc(C(F)F)o5)cc4F)n3)ccc12` [compound 397, 6-[2-[[4-[5-(difluoromethyl)-1,3,4-oxadiazol-2-yl]-2-fluorophenyl]methyl]tetrazol-5-yl]isoquinolin-1-amine], the IC50 in experiment [1] worked out at 1e+06 nM; in experiment [2], 57 nM.

`Nc1nc2cc(-c3cn(Cc4ccc(-c5nnc(C(F)F)o5)cc4)cn3)ccc2s1` [compound 300, 5-(1-(4-(5-(difluoromethyl)-1,3,4-oxadiazol-2-yl)benzyl)-1H-imidazol-4-yl)benzo[d]thiazol-2-amine]: the results for the concentration for half-maximal inhibition (IC50) in experiment [1] and in experiment [2] were above 200000 nM and 67 nM, respectively.

As to `Nc1ccc(-c2cn(C(CCCO)c3ccc(-c4nnc(C(F)F)o4)cc3)nn2)cn1` (stereo not shown) [compound 335, 4-(4-(6-aminopyridin-3-yl)-1H-1,2,3-triazol-1-yl)-4-(4-(5-(difluoromethyl)-1,3,4-oxadiazol-2-yl)phenyl)butan-1-ol], the 50% inhibitory concentration (IC50) in experiment [1] is above 1e+06 nM; in experiment [2], 62 nM.

For `FC(F)c1nnc(-c2ccc(Cn3nnc(-c4ccco4)n3)cc2)o1` [compound 220, 2-(difluoromethyl)-5-(4-((5-(furan-2-yl)-2H-tetrazol-2-yl)methyl)phenyl)-1,3,4-oxadiazole], the 50% inhibitory concentration (IC50) in experiment [1] is above 200000 nM; in experiment [2], 157 nM.

As for `CC(C)(C)OC(=O)N1CCC2(C1)C(=O)Nc1ccc(-c3cn(Cc4ccc(-c5nnc(C(F)F)o5)cn4)nn3)cc12` (single isomer, unassigned) [compound 265, tert-butyl 5-[1-({5-[5-(difluoromethyl)-1,3,4-oxadiazol-2-yl]pyridin-2-yl}methyl)-1H-1,2,3-triazol-4-yl]-2-oxo-1,2-dihydrospiro[indole-3,3′-pyrrolidine]-1′-carboxylate], the IC50 in experiment [1] was above 200000 nM; in experiment [2], 26 nM.

`CC[C@H](c1ccc(-c2nnc(C(F)F)o2)cc1)n1cc(-c2cccc(NC(=O)N3CCOCC3)c2)nn1` (stereo in doubt) [compound 184, N-(3-(1-(1-(4-(5-(difluoromethyl)-1,3,4-oxadiazol-2-yl)phenyl)propyl)-1H-1,2,3-triazol-4-yl)phenyl)morpholine-4-carboxamide]: the values for the half-inhibitory concentration (IC50) in experiment [1] and in experiment [2] were above 200000 nM and 96 nM, respectively.

Turning to `[2H]C([2H])(c1ccc(-c2nnc(C(F)F)o2)cc1F)n1cc(-c2ccc3nc(N)sc3c2)nn1` [compound 382, 6-[1-[dideuterio-[4-[5-(difluoromethyl)-1,3,4-oxadiazol-2-yl]-2-fluorophenyl]methyl]triazol-4-yl]-1,3-benzothiazol-2-amine], the IC50 in experiment [1] is above 1e+06 nM; in experiment [2] it was 18 nM.

On to `O=C1NCc2ccc(-c3cnn(Cc4ccc(-c5nnc(C(F)F)o5)cn4)c3)cc21` [compound 318, 6-[1-[[5-[5-(difluoromethyl)-1,3,4-oxadiazol-2-yl]pyridin-2-yl]methyl]pyrazol-4-yl]-2,3-dihydroisoindol-1-one], for which the half-inhibitory concentration (IC50) was above 1e+06 nM in experiment [1] and 40 nM in experiment [2].

Consider `Cn1c(N)nc2cc(-c3nnn(Cc4ccc(-c5nnc(C(F)F)o5)c(F)c4F)n3)ccc21` [compound 371, 5-[2-[[4-[5-(difluoromethyl)-1,3,4-oxadiazol-2-yl]-2,3-difluorophenyl]methyl]tetrazol-5-yl]-1-methylbenzimidazol-2-amine], for which the concentration for half-maximal inhibition (IC50) in experiment [1] was above 1e+06 nM; in experiment [2] it was 25 nM.

With `CN(Cc1ccncc1)Cc1ccc(-c2cn(Cc3c(F)cc(-c4nnc(C(F)F)o4)cc3F)nn2)cc1` [compound 179, N-(4-(1-(4-(5-(difluoromethyl)-1,3,4-oxadiazol-2-yl)-2,6-difluorobenzyl)-1H-1,2,3-triazol-4-yl)benzyl)-N-methyl-1-(pyridin-4-yl)methanamine], the IC50 in experiment [1] is above 200000 nM; in experiment [2] it was 90 nM.

Consider `O=C1Nc2ccc(-c3cn(Cc4ccc(-c5nnc(C(F)F)o5)cc4)nn3)cc2C12CCCC2` [compound 61, 5′-(1-(4-(5-(difluoromethyl)-1,3,4-oxadiazol-2-yl)benzyl)-1H-1,2,3-triazol-4-yl)spiro[cyclopentane-1,3′-indolin]-2′-one], for which the values for the concentration for half-maximal inhibition (IC50) in experiment [1] and in experiment [2] were above 200000 nM and 27 nM, respectively.

As to `Fc1ccccc1-c1nnn(Cc2ccc(-c3nnc(C(F)F)o3)cc2)n1` [compound 181, 2-(difluoromethyl)-5-(4-((5-(2-fluorophenyl)-2H-tetrazol-2-yl)methyl)phenyl)-1,3,4-oxadiazole], the IC50 was above 200000 nM in experiment [1] and 92 nM in experiment [2].

Consider `CN1CCN(C(=O)Nc2cccc(-c3cn(Cc4c(F)cc(-c5nnc(C(F)F)o5)cc4F)nn3)c2)CC1` [compound 63, N-(3-(1-(4-(5-(difluoromethyl)-1,3,4-oxadiazol-2-yl)-2,6-difluorobenzyl)-1H-1,2,3-triazol-4-yl)phenyl)-4-methylpiperazine-1-carboxamide], for which the IC50 in experiment [1] was above 200000 nM; in experiment [2], 28 nM.

As to `FC(F)c1nnc(-c2ccc(Cn3nnc(-c4cccc(-c5cnc(N6CCOCC6)s5)c4)n3)nc2)o1` [compound 130, 4-(5-(3-(2-((5-(5-(difluoromethyl)-1,3,4-oxadiazol-2-yl)pyridin-2-yl)methyl)-2H-tetrazol-5-yl)phenyl)thiazol-2-yl)morpholine], the IC50 in experiment [1] was above 200000 nM; in experiment [2] it was 50 nM.

On to `O=C(Nc1cccc(-c2cnn(Cc3ccc(-c4nnc(C(F)F)o4)cn3)c2)c1)N1CCOCC1` [compound 119, N-(3-(1-((5-(5-(difluoromethyl)-1,3,4-oxadiazol-2-yl)pyridin-2-yl)methyl)-1H-pyrazol-4-yl)phenyl)morpholine-4-carboxamide], for which the half-maximal inhibitory concentration (IC50) was above 200000 nM in experiment [1] and 45 nM in experiment [2].

Consider `O=C(Nc1ccc(-c2cn(Cc3ccc(-c4nnc(C(F)F)o4)cn3)cn2)cn1)C(F)F` [compound 126, N-(5-(1-((5-(5-(difluoromethyl)-1,3,4-oxadiazol-2-yl)pyridin-2-yl)methyl)-1H-imidazol-4-yl)pyridin-2-yl)-2,2-difluoroacetamide], for which the IC50 in experiment [1] is above 200000 nM; in experiment [2], 49 nM.

As to `Fc1cc(-c2nnn(Cc3ccc(-c4nnc(C(F)F)o4)cc3)n2)ccc1N1CCNCC1` [compound 224, 2-(difluoromethyl)-5-(4-((5-(3-fluoro-4-(piperazin-1-yl)phenyl)-2H-tetrazol-2-yl)methyl)phenyl)-1,3,4-oxadiazole], the IC50 in experiment [1] was above 200000 nM; in experiment [2], 162 nM.

With `Nc1ccc(-c2cn(C(CCCN3CCCCC3)c3ccc(-c4nnc(C(F)F)o4)cc3)nn2)cn1` (stereo not shown) [compound 303, 5-[1-[1-[4-[5-(difluoromethyl)-1,3,4-oxadiazol-2-yl]phenyl]-4-piperidin-1-ylbutyl]triazol-4-yl]pyridin-2-amine], the IC50 in experiment [1] was above 1e+06 nM; in experiment [2] it was 62 nM.
